target: T1, PARP7 (Homo sapiens, UniProt Q7Z3E1); experiment: PARP7 inhibitory activity assay (histone-coated 384-well plate, chemiluminescence); assay type: biochemical
T1 construct: purchased BPS 80527
T1 sequence (Q7Z3E1 1-657): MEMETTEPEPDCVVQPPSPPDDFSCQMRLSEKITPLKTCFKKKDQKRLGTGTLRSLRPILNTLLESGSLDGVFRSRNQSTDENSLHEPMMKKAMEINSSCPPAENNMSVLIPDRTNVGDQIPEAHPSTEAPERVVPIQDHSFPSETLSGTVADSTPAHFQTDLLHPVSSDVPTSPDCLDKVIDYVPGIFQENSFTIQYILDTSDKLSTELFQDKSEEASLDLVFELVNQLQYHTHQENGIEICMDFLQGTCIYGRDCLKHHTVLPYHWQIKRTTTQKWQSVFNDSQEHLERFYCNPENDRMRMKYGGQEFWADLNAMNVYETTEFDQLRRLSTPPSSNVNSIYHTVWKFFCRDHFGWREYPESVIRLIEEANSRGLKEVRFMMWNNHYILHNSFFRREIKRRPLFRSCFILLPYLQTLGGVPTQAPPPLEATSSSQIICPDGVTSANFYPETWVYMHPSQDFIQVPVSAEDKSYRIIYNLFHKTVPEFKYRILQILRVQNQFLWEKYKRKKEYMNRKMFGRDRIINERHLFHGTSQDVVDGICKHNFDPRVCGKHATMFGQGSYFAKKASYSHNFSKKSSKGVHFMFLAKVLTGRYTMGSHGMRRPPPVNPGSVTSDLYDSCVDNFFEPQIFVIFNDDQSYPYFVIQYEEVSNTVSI
Source text: Inhibition rate (%) calculation formula: […]

| SMILES | IC50 [nM] |
| --- | --- |
| O=C([C@H]1CC[C@H](NCc2c[nH]c(=O)c(C(F)(F)F)c2)C1)N1C2CCC1CN(c1ncc(C(F)(F)F)cn1)C2 [Embodiment 1] | 1000 to 10000 |
| C[C@@H](CN1CC[C@@H](C(=O)N2C3CCC2CN(c2ncc(C(F)(F)F)cn2)C3)C1)Nc1cn[nH]c(=O)c1C(F)(F)F [Embodiment 2] | 10 to 100 |
| C[C@@H](CN1CC[C@H](C(=O)N2C3CCC2CN(c2ncc(C(F)(F)F)cn2)C3)C1)Nc1cn[nH]c(=O)c1C(F)(F)F [Embodiment 6] | 10 to 100 |
| O=C(c1ccc(NCc2c[nH]c(=O)c(C(F)(F)F)c2)cc1)N1C2CCC1CN(c1ncc(C(F)(F)F)cn1)C2 [Embodiment 7] | 100 to 1000 |
| C[C@@H]1CN(c2ncc(C(F)(F)F)cn2)CCN1C(=O)[C@H]1C[C@H](NCc2c[nH]c(=O)c(C(F)(F)F)c2)C1 [Embodiment 8] | 10 to 100 |
| O=C([C@H]1CCN(Cc2c[nH]c(=O)c(C(F)(F)F)c2)C1)N1C2CCC1CN(c1ncc(C(F)(F)F)cn1)C2 [Embodiment 9, 3-(trifluoromethyl)-5-(((3S)-3-(3-(5-(trifluoromethyl)pyrimidin-2-yl)-3,8-diazabicyclo[3.2.1]octane-8-carbonyl)pyrrolidin-1-yl)methyl)pyridin-2(1H)-one] | 1000 to 10000 |
| O=C([C@@H]1CCN(Cc2c[nH]c(=O)c(C(F)(F)F)c2)C1)N1C2CCC1CN(c1ncc(C(F)(F)F)cn1)C2 [Embodiment 10, 3-(trifluoromethyl)-5-(((3R)-3-(3-(5-(trifluoromethyl)pyrimidin-2-yl)-3,8-diazabicyclo[3.2.1]octane-8-carbonyl)pyrrolidin-1-yl)methyl)pyridin-2(1H)-one] | 10 to 100 |
| O=C([C@H]1CCN(Cc2cc(C(F)(F)F)c(=O)[nH]n2)C1)N1C2CCC1CN(c1ncc(C(F)(F)F)cn1)C2 [Embodiment 11, 4-(trifluoromethyl)-6-(((3S)-3-(3-(5-(trifluoromethyl)pyrimidin-2-yl)-3,8-diazabicyclo[3.2.1]octane-8-carbonyl)pyrrolidin-1-yl)methyl)pyridazin-3(2H)-one] | 100 to 1000 |
| O=C([C@H]1CCC[C@H](NCc2c[nH]c(=O)c(C(F)(F)F)c2)C1)N1CCN(c2ncc(C(F)(F)F)cn2)CC1 [Embodiment 16] | 1000 to 10000 |
| O=C([C@H]1CCCN(Cc2c[nH]c(=O)c(C(F)(F)F)c2)C1)N1CCN(c2ncc(C(F)(F)F)cn2)CC1 [Embodiment 17] | 100 to 1000 |
| O=C(C1CCN(Cc2c[nH]c(=O)c(C(F)(F)F)c2)CC1)N1CCN(c2ncc(C(F)(F)F)cn2)CC1 [Embodiment 18] | 100 to 1000 |
| O=c1[nH]cc(CN[C@H]2C[C@@H](C(=O)N3CCN(c4ncc(C(F)(F)F)cn4)CC3)C2)cc1C(F)(F)F [Embodiment 19] | 10 to 100 |
| O=c1[nH]nc(CN[C@H]2C[C@@H](C(=O)N3CCN(c4ncc(C(F)(F)F)cn4)CC3)C2)cc1C(F)(F)F [Embodiment 20] | 100 to 1000 |
| O=C(C1CC2(C1)CN(Cc1c[nH]c(=O)c(C(F)(F)F)c1)C2)N1CCN(c2ncc(C(F)(F)F)cn2)CC1 [Embodiment 21] | 1000 to 10000 |
| O=C([C@@H]1CCCN(Cc2c[nH]c(=O)c(C(F)(F)F)c2)C1)N1CCN(c2ncc(C(F)(F)F)cn2)CC1 [Embodiment 22] | 10 to 100 |
| C[C@H]1CN(C(=O)[C@H]2C[C@H](NCc3c[nH]c(=O)c(C(F)(F)F)c3)C2)CCN1c1ncc(C(F)(F)F)cn1 [Embodiment 23] | < 10 |
| O=C([C@@H]1CCN(Cc2c[nH]c(=O)c(C(F)(F)F)c2)C1)N1CCN(c2ncc(C(F)(F)F)cn2)CC1 [Embodiment 24] | 10 to 100 |
| O=C(N1CCN(c2ncc(C(F)(F)F)cn2)CC1)C12CC(NCc3c[nH]c(=O)c(C(F)(F)F)c3)(C1)C2 [Embodiment 25] | 100 to 1000 |

| SMILES | IC50 [nM] |
| --- | --- |
| C[C@H]1CN(C(=O)C2CN(Cc3c[nH]c(=O)c(C(F)(F)F)c3)C2)CCN1c1ncc(C(F)(F)F)cn1 [Embodiment 26] | 10 to 100 |
| O=C(C1CN(Cc2c[nH]c(=O)c(C(F)(F)F)c2)C1)N1CCN(c2ccc(C(F)(F)F)cn2)CC1 [Embodiment 27] | 10 to 100 |
| O=c1[nH]cc(CN[C@H]2C[C@H](C(=O)N3CCN(c4ccc(C(F)(F)F)cn4)CC3)C2)cc1C(F)(F)F [Embodiment 28] | 10 to 100 |
| O=C(C1CN(Cc2c[nH]c(=O)c(C(F)(F)F)c2)C1)N1CCN(c2cnc(C(F)(F)F)cn2)CC1 [Embodiment 29] | 10 to 100 |
| C[C@H]1CN(C(=O)[C@@H]2CCN(Cc3cc(C(F)(F)F)c(=O)[nH]n3)C2)CCN1c1ncc(C(F)(F)F)cn1 [Embodiment 30] | 10 to 100 |
| O=C([C@@H]1CCN(Cc2cc(C(F)(F)F)c(=O)[nH]n2)C1)N1CCN(c2ncc(C(F)(F)F)cn2)CC1 [Embodiment 31] | 10 to 100 |
| O=C(C1CN(Cc2cc(C(F)(F)F)c(=O)[nH]n2)C1)N1CCN(c2ccc(C(F)(F)F)cn2)CC1 [Embodiment 32] | 10 to 100 |
| COc1nnc(CN(C)[C@H]2C[C@H](C(=O)N3CCN(c4ncc(C(F)(F)F)cn4)CC3)C2)cc1C(F)(F)F [Embodiment 33, ((1R,3R)-3-(((6-methoxy-5-(trifluoromethyl)pyridazin-3-yl)methyl)(methyl)amino)cyclobutyl)(4-(5-(trifluoromethyl)pyrimidin-2-yl)piperazin-1-yl)methanone] | 1000 to 10000 |
| CN(Cc1cc(C(F)(F)F)c(=O)[nH]n1)[C@H]1C[C@H](C(=O)N2CCN(c3ncc(C(F)(F)F)cn3)CC2)C1 [Embodiment 34] | 10 to 100 |
| O=C(C1CN(Cc2cc(C(F)(F)F)c(=O)[nH]n2)C1)N1CCN2c3ncc(C(F)(F)F)cc3OCC[C@@H]2C1 [Embodiment 37] | 10 to 100 |
| O=c1[nH]nc(CN[C@H]2C[C@H](C(=O)N3CCN4c5ncc(C(F)(F)F)cc5OCC[C@@H]4C3)C2)cc1C(F)(F)F [Embodiment 38] | 10 to 100 |
| O=c1[nH]nc(CN[C@H]2C[C@H](C(=O)N3CCN4c5ncc(C(F)(F)F)cc5COC[C@H]4C3)C2)cc1C(F)(F)F [Embodiment 39] | 10 to 100 |
| O=C(C1CN(Cc2cc(C(F)(F)F)c(=O)[nH]n2)C1)N1CCN2c3ncc(C(F)(F)F)cc3OCC[C@H]2C1 [Embodiment 40, (S)-4-(trifluoromethyl)-6-((3-(3-(trifluoromethyl)-7,7a,8,9,10,11-hexahydro-6H-pyrazino[1,2-d]pyrido[3,2-b][1,4]oxazepine-9-carbonyl)azetidin-1-yl)methyl)pyridazin-3(2H)-one] | 10 to 100 |
| O=c1[nH]nc(CN[C@H]2C[C@H](C(=O)N3CCN4c5ncc(C(F)(F)F)cc5OCC[C@H]4C3)C2)cc1C(F)(F)F [Embodiment 41] | 10 to 100 |
| O=C(C1CN(Cc2cc(C(F)(F)F)c(=O)[nH]n2)C1)N1CCN2c3ncc(C(F)(F)F)cc3COC[C@H]2C1 [Embodiment 42, (R)-4-(trifluoromethyl)-6-((3-(3-(trifluoromethyl)-7,7a,8,9,10,11-hexahydro-5H-pyrazino[2,1-c]pyrido[2,3-e][1,4]oxazepine-9-carbonyl)azetidin-1-yl)methyl)pyridazin-3(2H)-one] | 10 to 100 |
| O=c1[nH]nc(CN[C@H]2C[C@H](C(=O)N3CCN4c5ncc(C(F)(F)F)cc5COC[C@@H]4C3)C2)cc1C(F)(F)F [Embodiment 43] | 10 to 100 |
| O=C(C1CN(Cc2cc(C(F)(F)F)c(=O)[nH]n2)C1)N1CCN2c3ncc(C(F)(F)F)cc3COC[C@@H]2C1 [Embodiment 44, (S)-4-(trifluoromethyl)-6-((3-(3-(trifluoromethyl)-7,7a,8,9,10,11-hexahydro-5H-pyrazino[2,1-c]pyrido[2,3-e][1,4]oxazepine-9-carbonyl)azetidin-1-yl)methyl)pyridazin-3(2H)-one] | 10 to 100 |

From patent US20260200942A1, “PARP7 INHIBITORS AND THEIR APPLICATIONS” (CHONGQING PHARSCIN INNOBIO CO., LTD., priority 2023, published 2026)
